In US20240252437A1, “Methods For and Products From Encapsulation of Drugs in Nanoparticles in a Microgravity Environment” (Aphios Corporation, priority 2021, published 2024):

Experiments:
PKC-ε = molecular target: T1, PKC-ε (Homo sapiens, UniProt Q02156); conditions: in vitro studies (Yi et al., 2012); cited from earlier work
T1 sequence (Q02156 1-737): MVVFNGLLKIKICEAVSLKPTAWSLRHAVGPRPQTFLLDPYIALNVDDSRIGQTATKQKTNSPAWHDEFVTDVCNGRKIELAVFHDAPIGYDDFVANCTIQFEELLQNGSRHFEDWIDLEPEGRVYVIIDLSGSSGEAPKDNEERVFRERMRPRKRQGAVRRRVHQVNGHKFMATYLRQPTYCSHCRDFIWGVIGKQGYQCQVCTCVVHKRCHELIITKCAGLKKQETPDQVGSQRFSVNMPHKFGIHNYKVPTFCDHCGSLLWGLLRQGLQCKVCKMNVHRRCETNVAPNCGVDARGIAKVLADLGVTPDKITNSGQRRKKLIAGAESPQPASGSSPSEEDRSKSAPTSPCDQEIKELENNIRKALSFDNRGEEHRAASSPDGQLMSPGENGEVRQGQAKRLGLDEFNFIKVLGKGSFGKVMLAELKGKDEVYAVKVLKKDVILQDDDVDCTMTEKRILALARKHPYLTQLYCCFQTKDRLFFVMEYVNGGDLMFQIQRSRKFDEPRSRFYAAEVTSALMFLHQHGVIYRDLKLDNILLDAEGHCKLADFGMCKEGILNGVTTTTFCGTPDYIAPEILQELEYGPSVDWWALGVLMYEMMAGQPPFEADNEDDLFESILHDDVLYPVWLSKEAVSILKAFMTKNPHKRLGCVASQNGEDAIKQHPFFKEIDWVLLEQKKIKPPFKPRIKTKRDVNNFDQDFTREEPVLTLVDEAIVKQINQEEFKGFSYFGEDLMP

α-secretase = assay: HEK-293e cell model for APP processing: sAPP-α release by alkaline phosphatase absorbance at 620 nm (Earth); format: cell-based, human; conditions: for release of sAPP-α (increase in absorbance at 620 nm): HEK-293e cells stimulated for 24 h at 10^−8M, n=3
Description: The HEK-293e cell line was optimized for studying α-secretase in vitro.
HEK-293e cells are grown to confluency in T75 dishes in DMEM (Dulbecco's Modified Eagle Medium) and 10% FCS (Fetal Calf Serum) with 2 mM L-glutamine and pen-strepamphotericin. Supplements are needed to maintain plasmid expression: (1) Hygromycin stock solution=100× solution=4 mg/mL, final concentration=40 μg/mL (50 mg/12.5 mL makes 4 mg/mL); (2) Puromycin stock solution=100× solution=30 μg/mL stock, final concentration=0.3 μg/mL. Wait for 24-48 hours. All studies used phenol Red Free DMEM medium with 2% FCS. This must be heated to 65° C. for 30 minutes to inactivate endogenous alkaline phosphatase and cooled prior to making up test solutions.
For test solutions, remove 10% FCS growth medium and replace with 1 mL phenol red free DMEM medium+2% FCS per tube (various drug concentrations and control), and freeze cells in cryotubes. Thaw cryotubes and then: (1) Incubate cells at 37° C. for different time points; (2) Centrifuge tube at 1×g for 5 minutes and refreeze tubes to isolate culture supernatants; (3) Thaw tubes and transfer supernatants to new tube: (4) Make up substrate—Phos Blue (KPL Cat #50-88-00) according to manufacturer's instructions; (5) Transfer 100 µL of each sample and add 100 μL of substrate to 96 well plates; (6) Read immediately—record absorbance at 620 nm; and (7) Reacts quickly so record absorbance every 15 minutes for 60 minutes.
After freezing Bryosomes™, HEK-293e cells and cell culture media at −80 °C and thawing after 1, 3, 6 and 16 hours, the samples were analyzed for α-secretase production (FIG. 3). […] Thus, the concentration of 10^−8 M Bryosomes™ after mixing was targeted for the Space mission.

AD-transgenic mice = conditions: intranasally-active and orally active (Schrott et al., 2015); cited from earlier work

SMILES: CCC/C=C/C=C/C(=O)O[C@H]1/C(=C/C(=O)OC)C[C@H]2C[C@H]([C@@H](C)O)OC(=O)C[C@H](O)C[C@@H]3C[C@H](OC(C)=O)C(C)(C)[C@](O)(C[C@@H]4C/C(=C/C(=O)OC)C[C@H](/C=C/C(C)(C)[C@]1(O)O2)O4)O3 [Bryostatin-1]
- activation of PKC-ε isoform (PKC-ε): activate
- release of sAPP-α (increase in absorbance at 620 nm) (α-secretase): significantly increased
- release of sAPP-α (increase in absorbance at 620 nm) (α-secretase; listed as Bryostatin-I): strongly induces
- release of sAPP-α (α-secretase; HEK-293e cells, concentrations lower than 10^−8M): do not affect release
- cognitive performance (AD-transgenic mice): rapidly restores cognitive performance
